How the values were obtained:
Settings in all cases: 72 h
[1] = tested on: Caco-2; test: cell viability relative to DMSO; higher = less toxic
[2] = tested on: Calu-3; test: as above
[3] = tested on: HepG2; test: as above
[4] = tested on: U2OS; test: as above
[5] = tested on: Vero E6; test: as above
[6] = tested on: Caco-2; test: relative viability EC50 (midpoint between 100% and the lowest measured viability); higher = less toxic
[7] = tested on: Calu-3; test: as above
[8] = tested on: HepG2; test: as above
[9] = tested on: U2OS; test: as above
[10] = tested on: Vero E6; test: as above
[11] = tested on: Caco-2; test: drug sensitivity score (DSS) for viability; higher = more toxic; extreme values may be limits of the assay
[12] = tested on: Calu-3; test: as above
[13] = tested on: HepG2; test: as above
[14] = tested on: U2OS; test: as above
[15] = tested on: Vero E6; test: as above

Structure (SMILES) | cell viability ([1]; 1 nM) [%] | cell viability ([1]; 10 nM) [%] | cell viability ([1]; 100 nM) [%] | cell viability ([1]; 1000 nM) [%] | cell viability ([1]; 10000 nM) [%] | cell viability ([2]; 1 nM) [%] | cell viability ([2]; 10 nM) [%] | cell viability ([2]; 100 nM) [%] | cell viability ([2]; 1000 nM) [%] | cell viability ([2]; 10000 nM) [%] | cell viability ([3]; 1 nM) [%] | cell viability ([3]; 10 nM) [%] | cell viability ([3]; 100 nM) [%] | cell viability ([3]; 1000 nM) [%] | cell viability ([3]; 10000 nM) [%] | cell viability ([4]; 1 nM) [%] | cell viability ([4]; 10 nM) [%] | cell viability ([4]; 100 nM) [%] | cell viability ([4]; 1000 nM) [%] | cell viability ([4]; 10000 nM) [%] | cell viability ([5]; 1 nM) [%] | cell viability ([5]; 10 nM) [%] | cell viability ([5]; 100 nM) [%] | cell viability ([5]; 1000 nM) [%] | cell viability ([5]; 10000 nM) [%] | relative viability EC50 [6] [µM] | relative viability EC50 [7] [µM] | relative viability EC50 [8] [µM] | relative viability EC50 [9] [µM] | relative viability EC50 [10] [µM] | drug sensitivity score [11] | drug sensitivity score [12] | drug sensitivity score [13] | drug sensitivity score [14] | drug sensitivity score [15]
CCNC(=O)Nc1ccc(-c2nc3c(c(N4CCOC[C@@H]4C)n2)CCN(C2COC2)C3)cc1 [GDC-0349] | 107 | 95.7 | 82.3 | 51.7 | 35 | 101 | 100 | 79 | 39.5 | 29.5 | 114 | 99.8 | 95.9 | 49 | 26.3 | 102 | 98.9 | 94.6 | 66.2 | 21.1 | 106 | 105 | 94.2 | 81.2 | 40.3 | 0.295 | 0.211 | 0.6 | 1.17 | 1.46 | 11.1 | 13.7 | 10.4 | 8.3 | 5.6
CC(C)(Sc1ccc(CCN(CCCCC2CCCCC2)C(=O)NC2CCCCC2)cc1)C(=O)O [GW-7647] | 87.7 | 101 | 98.3 | 104 | 103 | 97.9 | 110 | 100 | 94.6 | 100 | 87 | 95.3 | 99.1 | 87 | 101 | 101 | 101 | 105 | 96.2 | 98.2 | 97.3 | 100 | 91.1 | 97.7 | 110 | > 10 | > 10 | > 10 | > 10 | > 10 | 0 | 0 | 0 | 0 | 0
CCn1c2ccccc2c2cc(CNCc3ccccc3OC)ccc21 [HLCL-61] | 103 | 92 | 94.6 | 107 | 101 | 111 | 99.5 | 95.7 | 106 | 87.9 | 106 | 95.4 | 93.5 | 95.6 | 79.2 | 100 | 96.6 | 99.2 | 102 | 94.9 | 91.3 | 93.2 | 88.2 | 88.8 | 93.5 | > 10 | > 10 | > 10 | > 10 | > 10 | 0 | 0 | 1.1 | 0 | 0.1
O=C(O)c1ccc(O)c2ncccc12 [IOX1] | 89 | 97.7 | 97.6 | 104 | 102 | 97.6 | 99.5 | 98.2 | 105 | 86.7 | 110 | 90.1 | 87.4 | 101 | 94.7 | 99.9 | 100 | 100 | 103 | 99.7 | 98 | 92.3 | 103 | 101 | 106 | > 10 | > 10 | > 10 | > 10 | > 10 | 0 | 0 | 0 | 0 | 0
C[C@]12CC[C@H]3[C@@H](CC[C@]4(O)C[C@@H](O)CC[C@]34C=O)[C@@]1(O)CC[C@@H]2C1=CC(=O)OC1 [K-strophanthidin] | 87.6 | 110 | 99.4 | 68.5 | 38.8 | 98.2 | 102 | 107 | 92 | 25.8 | 96.4 | 88.6 | 102 | 46.2 | 14.8 | 96.9 | 98.7 | 96.6 | 72.4 | 5.2 | 99.5 | 98.8 | 72.6 | 1.9 | 0.9 | 0.975 | 2.28 | 0.807 | 1.43 | 0.151 | 7.3 | 5.4 | 11.1 | 9.3 | 21.8
N=C(N)SCCc1ccc(OCc2ccc([N+](=O)[O-])cc2)cc1 [KB-R7943] | 88.7 | 103 | 99.2 | 97.2 | 94.5 | 104 | 110 | 93.5 | 99.6 | 98.4 | 96.2 | 108 | 108 | 90.3 | 78.8 | 96.5 | 105 | 98.3 | 105 | 102 | 99.7 | 101 | 99.2 | 97.4 | 90.4 | > 10 | > 10 | > 10 | > 10 | > 10 | 0 | 0 | 1.7 | 0 | 0
CSc1ccccc1Nc1nc(N2CCNCC2)nc2c(NCC3CC3)ncnc12 [KHK-IN-1] | 103 | 107 | 98.7 | 104 | 0.6 | 99.5 | 95.4 | 106 | 94.1 | 0.2 | 104 | 91 | 94.1 | 91.6 | 0 | 97.6 | 98.7 | 95.7 | 98.2 | 0.1 | 101 | 98.1 | 96.1 | 89.1 | 0.1 | 3.39 | 2.7 | 2.47 | 3.04 | 2.26 | 5.2 | 6.4 | 6.9 | 5.8 | 7.3
O=C(Nc1ccccc1C(=O)Nc1ccc(CCO)cc1)c1ccc([N+](=O)[O-])cc1 [KS-176] | 94 | 94.8 | 87.9 | 97.5 | 90.6 | 100 | 87.9 | 98.1 | 102 | 91.5 | 94 | 95 | 96.3 | 95.2 | 83.2 | 96.7 | 104 | 97.6 | 97.8 | 93.4 | 98.2 | 102 | 99.2 | 92.6 | 93.1 | > 10 | > 10 | > 10 | > 10 | > 10 | 0 | 0 | 0.1 | 0 | 0
N=C(N)NCCC[C@H](N)C(=O)O [L-arginine] | 97.6 | 114 | 96.9 | 107 | 98.9 | 104 | 95.7 | 104 | 99 | 99.3 | 95.3 | 96.5 | 95.5 | 96 | 89.4 | 105 | 94.9 | 99.6 | 94.6 | 101 | 97.2 | 99.2 | 102 | 103 | 102 | > 10 | > 10 | > 10 | > 10 | > 10 | 0 | 0 | 0 | 0 | 0
N[C@@H](CS(=O)O)C(=O)O [L-cysteinesulfinic-acid] | 96.8 | 93.2 | 102 | 105 | 101 | 94 | 97.3 | 105 | 111 | 107 | 93.5 | 90.9 | 77.8 | 89.9 | 102 | 99.5 | 97.3 | 98.5 | 106 | 101 | 91 | 95.8 | 93.2 | 95.1 | 102 | > 10 | > 10 | > 10 | > 10 | > 10 | 0 | 0 | 0.2 | 0 | 0
CN1CCN(C(=O)C2C(C(=O)O)[C@H]3CC[C@@H]2O3)CC1 (stereo not given in full) [LB-100] | 103 | 85.7 | 99.8 | 84.7 | 36.5 | 95.6 | 91.5 | 106 | 92.8 | 86.7 | 98.6 | 97.3 | 109 | 96.6 | 102 | 103 | 92.9 | 99.4 | 96.2 | 95.6 | 98.3 | 101 | 93.1 | 99 | 106 | 1.58 | > 10 | > 10 | > 10 | > 10 | 5.9 | 0.5 | 0 | 0 | 0
CS(=O)(=O)OCOS(C)(=O)=O [MDMS] | 104 | 105 | 98.1 | 99.7 | 101 | 102 | 103 | 95.9 | 100 | 97.7 | 109 | 97.1 | 112 | 112 | 107 | 100 | 102 | 99.6 | 106 | 104 | 99.8 | 98.4 | 102 | 98.7 | 101 | > 10 | > 10 | > 10 | > 10 | > 10 | 0 | 0 | 0 | 0 | 0

— the supplement of paper PMC13380429
